Measured values as given in ChEMBL document CHEMBL5236604, “Cage hydrocarbons as linkers in dimeric drug design: Case studies with trimethoprim and tedizolid” (2023).
Values after ≈ are worked out from the molar mass of the structure shown. Active and inactive are the calls of the source. The rule behind the calls is not given here.

Assays:
Staphylococcus aureus [1] = experiment: Antibacterial activity against trimethoprim sensitive Staphylococcus aureus assessed as inhibition of bacterial growth; assay type: functional
Enterococcus faecium [2] = experiment: Antibacterial activity against trimethoprim sensitive Enterococcus faecium assessed as inhibition of bacterial growth; assay type: functional
Acinetobacter baumannii [3] = experiment: Antibacterial activity against trimethoprim sensitive Acinetobacter baumannii assessed as inhibition of bacterial growth; assay type: functional
Enterococcus faecium [4] = experiment: Antibacterial activity against trimethoprim resistant Enterococcus faecium assessed as inhibition of bacterial growth; assay type: functional
Staphylococcus aureus [5] = experiment: Antibacterial activity against trimethoprim resistant Staphylococcus aureus assessed as inhibition of bacterial growth; assay type: functional
Enterococcus faecium [6] = experiment: Antibacterial activity against Enterococcus faecium; assay type: functional, organism-based
Staphylococcus aureus [7] = experiment: Antibacterial activity against Staphylococcus aureus; assay type: functional, organism-based
Acinetobacter baumannii [8] = experiment: Antibacterial activity against trimethoprim resistant Acinetobacter baumannii assessed as inhibition of bacterial growth; assay type: functional

Q: What does the source list for `COc1cc(Cc2cnc(N)nc2N)cc(OC)c1OC(=O)C12CCC(C(=O)Oc3c(OC)cc(Cc4cnc(N)nc4N)cc3OC)(CC1)CC2`?
A: MIC (Staphylococcus aureus [1]): > 100 µM; MIC (Enterococcus faecium [2]): 3.12 µM (≈ 2.23 µg/mL); MIC (Acinetobacter baumannii [3]): > 100 µM; MIC (Enterococcus faecium [4]): > 100 µM

Q: How did the MIC (Staphylococcus aureus [1]) turn out when `COc1cc(Cc2cnc(N)nc2N)cc(OC)c1OC(=O)C12CC(C(=O)Oc3c(OC)cc(Cc4cnc(N)nc4N)cc3OC)(C1)C2` was run?
A: 25 µM (≈ 16.8 µg/mL)

Q: And the MIC (Staphylococcus aureus [5])?
A: > 100 µM

Q: And the MIC (Enterococcus faecium [2])?
A: 1.56 µM (≈ 1.05 µg/mL)

Q: What about the MIC (Acinetobacter baumannii [3]) of the same compound?
A: > 100 µM

Q: And the MIC (Enterococcus faecium [4])?
A: > 50 µM

Q: `CC(C)(C)[Si](C)(C)OC[C@H]1CN(c2ccc(O)c(F)c2)C(=O)O1` was tested. Which Activity (Enterococcus faecium [6]) did it give?
A: inactive

Q: What about the Activity (Staphylococcus aureus [7]) of the same compound?
A: inactive

Q: With `COc1cc(Cc2cnc(N)nc2N)cc(OC)c1OC` [TRIMETHOPRIM] as the compound, how does the MIC (Staphylococcus aureus [1]) read?
A: 6.25 µM (≈ 1.81 µg/mL)

Q: And the MIC (Acinetobacter baumannii [8])?
A: > 400 µM

Q: What about the MIC (Staphylococcus aureus [5]) of the same compound?
A: 12.5 µM (≈ 3.63 µg/mL)

Q: And the MIC (Enterococcus faecium [2])?
A: 0.78 µM (≈ 0.226 µg/mL)

Q: What about the MIC (Acinetobacter baumannii [3]) of the same compound?
A: 6.25 µM (≈ 1.81 µg/mL)

Q: What about the MIC (Enterococcus faecium [4]) of the same compound?
A: 100 µM (≈ 29 µg/mL)

Q: For `COc1cc(Cc2cnc(N)nc2N)cc(OC)c1O` [4-HYDROXYTRIMETHOPRIM], which MIC (Staphylococcus aureus [1]) is on record?
A: 12.5 µM (≈ 3.45 µg/mL)

Q: What about the MIC (Staphylococcus aureus [5]) of the same compound?
A: > 25 µM

Q: And the MIC (Enterococcus faecium [2])?
A: 3.12 µM (≈ 0.863 µg/mL)

Q: What about the MIC (Acinetobacter baumannii [3]) of the same compound?
A: > 100 µM

Q: What about the MIC (Enterococcus faecium [4]) of the same compound?
A: 60 µM (≈ 16.6 µg/mL)

Q: `COc1cc(Cc2cnc(N)nc2N)cc(OC)c1OC(=O)C12CC3CC(C1)CC(C(=O)Oc1c(OC)cc(Cc4cnc(N)nc4N)cc1OC)(C3)C2` was tested. Which MIC (Staphylococcus aureus [1]) did it give?
A: 12.5 µM (≈ 9.26 µg/mL)

Q: What about the MIC (Staphylococcus aureus [5]) of the same compound?
A: > 25 µM

Q: What about the MIC (Enterococcus faecium [2]) of the same compound?
A: 6.25 µM (≈ 4.63 µg/mL)

Q: And the MIC (Acinetobacter baumannii [3])?
A: > 100 µM

Q: And the MIC (Enterococcus faecium [4])?
A: 50 µM (≈ 37 µg/mL)
